Reference: US20240336583A1, “BENZO-RING-CONTAINING DERIVATIVE, AND PREPARATION METHOD THEREFOR AND USE THEREOF” (SHUJING BIOPHARMA CO., LTD, priority 2021, published 2024)

How the values were obtained:
Assay type in all cases: in vivo
ICR mice [1] = experiment: Mouse righting reflex test (ED50, sequential method, tail vein bolus); conditions: for ED50: Mus musculus, read-out: ED50 (median effective dose: dose required to cause 50% of the mice to lose the righting reflex); for ED50 / ED50 (median effective dose: dose required to cause 50% of the mice to lose the righting reflex): tail vein bolus within 10 seconds, sequential method, AOT425 software; for Symptoms in test animals in ED50 test: after tail vein administration
Protocol: The ED50 value and LD50 value of the compound of the present invention were measured using a sequential method. The TI (therapeutic index) of the drug was calculated.
(§1) SPF grade ICR mice (Pizhou Oriental Breeding Co., Ltd.), 22-28 g, 15 mice/group. All mice received 3 days of quarantine and acclimation and were transferred from the feeding room to the laboratory for acclimation 1 h prior to the experiment.
(§2) The test compound was dissolved in 20% fat emulsion or purified water to prepare a 5 mg/ml drug liquid.
(§3) During the test, firstly a mouse was dosed at the tail vein, and the bolus injection was completed within 10 seconds. […] Finally, the AOT425 Statpm software was used to calculate the ED50 (median effective dose: the dose required to cause 50% of the mice to lose the righting reflex by the test) and LD50 (median lethal dose: the dose required to cause 50% of the mice to die by the test) values. The formula for TI (therapeutic index) was: TI=LD50/ED50.

[2] = Mouse LD50 test (sequential method, tail vein bolus); conditions: mouse, in vivo, intravenous; ICR mice, tail vein bolus within 10 seconds, sequential method, AOT425 software; read-out: LD50 (median lethal dose: dose required to cause 50% of the mice to die)
Protocol: (§4) The ED50 value and LD50 value of the compound of the present invention were measured using a sequential method. The TI (therapeutic index) of the drug was calculated. The animal symptoms in the experimental process were observed, and the drug effect, safety and side effects of the compound of the present invention were examined.
as §1, §2, §3

ICR mice [3] = experiment: as above; conditions: TI=LD50/ED50, ICR mice, tail vein
Protocol: as §4, §1, §2, §3

Row | SMILES | ED50 (ICR mice [1]) [mg/kg] | Symptoms in test animals in ED50 test (ICR mice [1]) | ED50 (median effective dose: dose required to cause 50% of the mice to lose the righting reflex) (ICR mice [1]) [mg/kg] | LD50 [2] [mg/kg] | TI (therapeutic index) (ICR mice [3])
1 | CC(C)c1cccc(C(C)C)c1OCOP(=O)(O)O [Fospropofol sodium, reference compound] | 112 | – | – | – | –
2 | CC1COc2c(F)cc(C(C)C3CC3)c(O)c21 (single isomer, unassigned) [Example 4, 5-(1-cyclopropylethyl)-7-fluoro-3-methyl-2,3-dihydrobenzofuran-4-ol] | – | The animals' condition was stable after | 8.9 | 62.5 | 7.0
3 | CC1COc2c(F)cc(C(C)C3CC3)c(OCOP(=O)([O-])[O-])c21.[Na+].[Na+] (single isomer, unassigned) [Example 10A1, sodium (5-(1-cyclopropyl)-7-fluoro-3-methyl-2,3-dihydrobenzofuran-4-yl) oxymethyl phosphate] | – | The animals' condition was stable after | – | – | –
4 | CC1COc2c(F)cc(C(C)C3CC3)c(O)c21 (single isomer, unassigned) [Example 11A1, 5-(1-cyclopropylethyl)-7-fluoro-3-methyl-2,3-dihydrobenzofuran-4-ol] | – | The animals' condition was stable after | 4.0 | – | –
5 | CC(C)c1cccc(C(C)C)c1O [Propofol, reference compound] | 12.9 | Some animals exhibited body twitching and | – | 55.9 | 4.3
